Experimental data taken from US20050208597A1, “Microarray analysis of post-translational modifications” (The Board of Trustees of the Leland Stanford Junior …, priority 2004, published 2005).

Assays:
Type in all cases: cell-based
[1] = test system: MEK1/2 phosphorylation; assay: RPP microarray, phospho-specific antibody probing of cell lysates
Procedure: (§1) FIG. 2. Applications of reverse-phase protein microarrays. (A) Kinetics of PLCγ1 (Y783) phosphorylation in Jurkat T cells following stimulation with anti-CD3 (pink triangle), anti-CD28 (green circle), both antibodies (blue squares), or isotype control antibodies (empty squares) over 30 minutes. Left panel: Phosphorylation kinetics unadjusted for total PLCγ1 levels. Middle Panel: Total PLCγ1 levels. Right panel: Ratiometric data on phosphorylation kinetics (phospho-PLCγ1/total PLCγ1). See text for details. (B) Phosphorylation kinetics of four signaling proteins (PLCγ1, Akt, MEK1/2, and p44/42 MAPK) in wildtype Jurkat T cells (black square) and J.gamma1, a mutant Jurkat line deficient in PLCγ1 (empty circle), stimulated with both anti-CD3 and CD28 antibodies. […] Jurkats T cells were stimulated with either anti-CD3 or anti-CD28 antibodies in the presence of one of three kinase inhibitors (see text for details). Lysates were collected after 10 minutes of stimulation, spotted on slides, and probed with four phospho-specific antibodies. Representative spots of p-p44/42 MAPK and p-MEK1/2 are shown for anti-CD3 stimulated cells and p-Akt (Ser473) and p-PDK1 for anti-CD28 treated cells.
(§2) To fabricate the protein microarrays, we used a contact-printing robotic microarrayer to deliver nanoliter (˜6 nl) volumes of whole cell lysates onto nitrocellulose-coated slides. FAST slides (Schleicher and Schuell BioSciences, Dassel, Germany). Depending on the experimental setup, two different formats of FAST slides were used. In experiments where the number of samples was greater than the number of analytes measured, slides with a single pad capable of holding over 2000 lysate spots were used. In our screening experiments where the number of analytes exceeds the number of samples, we used slides carrying eight sectored pads or subarrays for multiplex analysis. Under our current configuration, a maximum of 24 spots can be fitted onto each individual pad (6 mm×6 mm).
(§3) For small-scale experiments, we used a precision 8-pin manual microarrayer system (Microcaster system from Schleicher & Schuell). […] The protein lysates dried within seconds of printing and were tightly bound to the nitrocellulose platform via electrostatic interactions.

[2] = test system: Akt (Ser473) phosphorylation; assay: as above
Procedure: as §1, §2, §3

[3] = test system: p44/42 MAPK phosphorylation; assay: as above
Procedure: as §1, §2, §3

[4] = test system: β-actin; assay: RPP microarray, phosphorylation-state independent antibody; settings: PMA treated vs untreated Jurkat T cells
Source text: (§4) FIG. 1. Protein microarray performance characteristics and validation. (A) Four purified antigens spotted in triplicate over six 2-fold dilutions starting at 900 pg per spot and probed with their corresponding antibodies. (B) Quantitative comparison between Western immunoblotting and protein microarray for measuring Hsp70 induction in heat-shocked Jurkat T cells. (C) Detection of changes in phosphorylation in signaling proteins in PMA treated vs. untreated Jurkat T cells. Corresponding immunoblots of the same samples are shown on the right. Antibodies specific for p44/42 MAPK, MEK1/2 and Akt are phosphorylation-state dependent. Antibodies for SLP-76 and β-actin are not dependent on phosphorylation.
(§5) To fabricate the protein microarrays, we used a contact-printing robotic microarrayer to deliver nanoliter (˜6 nl) volumes of whole cell lysates onto nitrocellulose-coated slides. […] In experiments where the number of samples was greater than the number of analytes measured, slides with a single pad capable of holding over 2000 lysate spots were used. […]
(§6) For small-scale experiments, we used a precision 8-pin manual microarrayer system (Microcaster system from Schleicher & Schuell). The resulting features measured approximately 500 μm in diameter. […] Bound primary antibodies were detected with a horseradish peroxidase (HRP)-linked secondary antibody. […]

[5] = test system: SLP-76; assay: as above; settings: PMA treated vs untreated Jurkat T cells
Source text: as §4, §5, §6

[6] = test system: PDK1 phosphorylation; assay: RPP microarray, phospho-specific antibody probing of cell lysates; settings: Jurkat cells stimulated through CD28 in the presence of the inhibitor; lysates after 10 minutes; one of the 'other 3 kinases' (named)
Procedure: as §1, §2, §3

[7] = PMA treated vs untreated Jurkat T cells
[8] = Jurkat cells stimulated through CD3 in the presence of the inhibitor, lysates after 10 minutes

| SMILES | phosphorylation of MEK1/2 [1, 7] | phosphorylation of Akt/PKB [2, 7] | phosphorylation of p44/42 MAPK [3, 7] | abundance of β-actin [4] | abundance of SLP-76 [5] | phosphorylation of PDK1 [6] | phosphorylation of MEK1/2 [1, 8] | phosphorylation of Akt (Ser473) ([2]; Jurkat cells stimulated through CD28 in the presence of the inhibitor, lysates after 10 minutes) | phosphorylation of p44/42 MAPK [3, 8] |
| --- | --- | --- | --- | --- | --- | --- | --- | --- | --- |
| CCCCCCCCCCCCCC(=O)O[C@@H]1[C@@H](C)[C@@]2(O)[C@@H](C=C(CO)C[C@]3(O)C(=O)C(C)=C[C@@H]23)[C@@H]2C(C)(C)[C@]12OC(C)=O [PMA, phorbol 12-myristate 13-acetate] | rapid phosphorylation | not significantly affected | rapid phosphorylation | no changes | no changes |  |  |  |  |
| N#CC(=C(/N)Sc1ccccc1N)/C(C#N)=C(\N)Sc1ccccc1N [U0126] |  |  |  |  |  | had no effect | had no effect | had no effect | specifically blocked |
